Measurements: publication PMC11682119 (Scientific Reports, 2024)

Target: T1, hALDH2 (Homo sapiens, UniProt P05091)
T1 sequence (P05091 18-517): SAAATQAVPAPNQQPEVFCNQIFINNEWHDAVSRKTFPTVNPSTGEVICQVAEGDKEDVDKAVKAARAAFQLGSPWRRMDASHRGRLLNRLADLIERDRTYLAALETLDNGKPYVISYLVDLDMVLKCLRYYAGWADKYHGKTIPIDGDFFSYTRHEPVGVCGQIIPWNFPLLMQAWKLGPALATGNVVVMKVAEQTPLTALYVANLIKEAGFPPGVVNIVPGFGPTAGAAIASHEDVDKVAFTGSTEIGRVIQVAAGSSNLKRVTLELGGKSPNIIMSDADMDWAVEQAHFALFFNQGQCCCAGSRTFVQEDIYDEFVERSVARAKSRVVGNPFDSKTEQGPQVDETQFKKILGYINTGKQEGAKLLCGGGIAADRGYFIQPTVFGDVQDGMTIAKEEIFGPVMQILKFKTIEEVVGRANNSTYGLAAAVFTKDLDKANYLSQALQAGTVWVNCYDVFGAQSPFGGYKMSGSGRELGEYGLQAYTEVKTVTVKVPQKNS
Type: biochemical

CN(C)C(=S)SSC(=S)N(C)C [thiram]
IC50: 1600 nM
